Experimental data taken from ChEMBL document CHEMBL6127065, “Design and Synthesis of c-Met and HDAC Dual Inhibitors for the Treatment of Breast Cancer” (ACS Med Chem Lett, 2024).

Tests used:
MDA-MB-231 = experiment: Antiproliferative activity against human MDA-MB-231 cells assessed as reduction in cell growth incubated for 72 hrs by MTT assay; settings: MDA-MB-231, 72 h
MDA-MB-453 = experiment: Antiproliferative activity against human MDA-MB-453 cells assessed as reduction in cell growth incubated for 72 hrs by MTT assay; settings: MDA-MB-453, 72 h
MDA-MB-468 = experiment: Antiproliferative activity against human MDA-MB-468 cells assessed as reduction in cell growth incubated for 72 hrs by MTT assay; settings: MDA-MB-468, 72 h
[1] = molecular target: T1, Protein deacetylase HDAC6 (Homo sapiens) (UniProt Q9UBN7); settings: dose 1000.0 nM, time 60.0 min
T1 sequence (whole entry): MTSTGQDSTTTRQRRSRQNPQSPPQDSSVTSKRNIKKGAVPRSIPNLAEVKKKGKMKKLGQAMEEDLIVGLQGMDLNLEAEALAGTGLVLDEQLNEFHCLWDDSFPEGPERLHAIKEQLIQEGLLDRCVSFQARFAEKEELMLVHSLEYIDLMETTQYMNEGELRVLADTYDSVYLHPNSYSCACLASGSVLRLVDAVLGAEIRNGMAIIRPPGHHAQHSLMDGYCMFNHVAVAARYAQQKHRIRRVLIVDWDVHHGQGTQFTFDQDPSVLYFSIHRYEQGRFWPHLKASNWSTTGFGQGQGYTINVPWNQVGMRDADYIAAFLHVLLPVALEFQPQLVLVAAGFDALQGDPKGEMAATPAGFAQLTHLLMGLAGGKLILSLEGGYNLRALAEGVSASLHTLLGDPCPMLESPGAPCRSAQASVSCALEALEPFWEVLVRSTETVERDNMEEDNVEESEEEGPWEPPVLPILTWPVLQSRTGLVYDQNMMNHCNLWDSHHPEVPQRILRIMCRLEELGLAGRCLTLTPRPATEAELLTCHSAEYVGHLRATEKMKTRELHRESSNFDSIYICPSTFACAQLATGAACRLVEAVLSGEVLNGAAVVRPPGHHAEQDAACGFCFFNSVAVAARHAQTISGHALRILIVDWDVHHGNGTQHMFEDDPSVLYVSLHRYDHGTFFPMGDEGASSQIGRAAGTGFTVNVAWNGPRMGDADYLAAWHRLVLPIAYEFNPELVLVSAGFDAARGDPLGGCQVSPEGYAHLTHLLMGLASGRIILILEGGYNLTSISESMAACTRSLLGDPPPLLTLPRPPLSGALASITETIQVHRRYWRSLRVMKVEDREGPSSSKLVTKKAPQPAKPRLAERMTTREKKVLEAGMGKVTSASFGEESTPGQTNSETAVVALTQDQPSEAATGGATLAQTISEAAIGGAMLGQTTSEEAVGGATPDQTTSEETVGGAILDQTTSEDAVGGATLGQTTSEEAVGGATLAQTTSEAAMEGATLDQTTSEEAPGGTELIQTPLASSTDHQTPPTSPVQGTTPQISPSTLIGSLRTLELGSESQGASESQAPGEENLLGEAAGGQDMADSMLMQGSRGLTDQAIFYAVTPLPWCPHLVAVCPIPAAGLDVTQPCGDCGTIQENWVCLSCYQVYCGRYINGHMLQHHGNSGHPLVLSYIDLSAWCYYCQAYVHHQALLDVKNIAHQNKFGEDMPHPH

| IC50 (MDA-MB-231) [µM] | IC50 (MDA-MB-453) [µM] | IC50 (MDA-MB-468) [µM] | inhibition [1] [%] | SMILES |
| --- | --- | --- | --- | --- |
| 26.6 | 27.2 | 14.2 | – | CC(c1ccc2ncccc2c1)n1nnc2ncc(N3CCN(CC(=O)Nc4ccccc4N)CC3)nc21 (configuration not stated) |
| 22.8 | 22.9 | 18.9 | – | CC(c1ccc2ncccc2c1)n1nnc2ncc(N3CCN(CCCC(=O)Nc4ccccc4N)CC3)nc21 (configuration not stated) |
| 30.4 | 30.8 | 21.9 | – | CC(c1ccc2ncccc2c1)n1nnc2ncc(N3CCN(CCC(=O)Nc4ccccc4N)CC3)nc21 (configuration not stated) |
| 6.46 | 5.91 | 3.92 | – | CC(c1ccc2ncccc2c1)n1nnc2ncc(N3CCN(Cc4ccc(CC(=O)Nc5ccc(F)cc5N)cc4)CC3)nc21 (configuration not stated) |
| 1.72 | 0.63 | 3.48 | 2.6 | Nc1cc(F)ccc1NC(=O)c1ccc(CNC(=O)/C=C/c2cccnc2)cc1 [TUCIDINOSTAT] |
| 15.3 | 16 | 12.8 | – | CC(c1ccc2ncccc2c1)n1nnc2ncc(N3CCN(Cc4ccc(C(=O)Nc5ccccc5N)cc4)CC3)nc21 (configuration not stated) |
| 4.9 | 4.69 | 2.62 | – | C[C@@H](Oc1cc(-c2cnn(C3CCNCC3)c2)cnc1N)c1c(Cl)ccc(F)c1Cl [CRIZOTINIB] |
